The values below are quoted from earlier work in patent US12728106B2, “Multiparticulate pharmaceutical composition of tamsulosin and solifenacin” (priority 2020, dated 2026).

The structures appear in SMILES notation. Like-named read-outs stand apart in the source and are kept apart here.

With `CCOc1ccccc1OCCN[C@H](C)Cc1ccc(OC)c(S(N)(=O)=O)c1.Cl` [Tamsulosin hydrochloride, (−)-(R)-5-[2-[[2-(o-Ethoxyphenoxy)ethyl]amino]propyl]-2methoxybenzenesulfonamide, monohydrochloride], the Solubility in water entry was “sparingly soluble”.
Consider `O=C(O[C@H]1CN2CCC1CC2)N1CCc2ccccc2[C@@H]1c1ccccc1` [Solifenacin succinate, butanedioic acid compound with (1S)-(3R)-1-azabicyclo[2.2.2]oct-3-yl 3,4-dihydro-1-phenyl-2(1H)-iso-quinolinecarboxylate (1:1)], for which, for the setting “room temperature, dimethyl sulfoxide”, the “Solubility in dimethyl sulfoxide” value is recorded as “freely soluble”. In addition, under “room temperature, glacial acetic acid”, the “Solubility in glacial acetic acid” value is listed as “freely soluble”. Besides, for the setting “room temperature, methanol”, the Solubility in methanol entry is “freely soluble”. The Solubility in water result (room temperature) is recorded as “freely soluble”.
